Tested on: beagle dogs
Assay: canine telemetry protocol for blood pressure reduction efficacy
Format: in vivo
Settings: male beagle dogs, 3 mg/kg oral gavage
Procedure: Compounds of the invention were evaluated for blood pressure reduction efficacy using the following canine telemetry protocol.
Male beagle dogs (approximately 1-3 years old) with a body weight of between 10 and 16 kg were surgically implanted with DSI radiotelemetry devices (model: TL11M2-D70-PCT). Briefly, under an inhalant anesthesia, isoflurane/oxygen mixture (1-3.5%/to effect), the body of the telemetry device was positioned and secured intra-abdominally. Subsequently, the arterial catheter of the telemetry device was passed subcutaneously to the inguinal area and introduced into the femoral artery and advanced to the level of the descending aorta. The catheter was secured with 2-0 silk ligatures. The muscle and underlying fascia was closed over the catheter using absorbable suture and the skin was closed using non-absorbable suture. The animals were allowed a minimum recovery period of 2 weeks between surgery and the evaluation of test compounds.
Compound evaluation consisted of a 3 day paradigm at a 3 mg/kg dose. On the first day, no compounds were administered during a 24 hour period of baseline data collection. Blood pressure and heart rate data were collected continuously for one minute periods at 10 minute intervals. On the days of compound administration half the animals received test article with the other half receiving the vehicle used for compound formulation. All test materials were administered by oral gavage in a volume of 1 mL/kg. Data are expressed either as raw values (mm Hg or beats per minute) or as the change from baseline (average value for about 12 hours in low activity period prior to dosing). Change is SBP (systolic blood pressure) and PP (pulse pressure) over time is shown below: […]

Row | Compound | ΔPP (pulse pressure, change from baseline) 1-6 h [mm Hg] | ΔSBP (systolic blood pressure, change from baseline) 1-6 h [mm Hg] | ΔPP (pulse pressure, change from baseline) 6-12 h [mm Hg] | ΔSBP (systolic blood pressure, change from baseline) 6-12 h [mm Hg] | ΔPP (pulse pressure, change from baseline) 12-18 h [mm Hg] | ΔSBP (systolic blood pressure, change from baseline) 12-18 h [mm Hg]
1 | Cc1ncc2c(c1OC(=O)[C@H]1CC[C@H](O/N=[N+](\[O-])N(C)C(C)(C)C)CC1)CO[C@H]2c1ccc(Cl)cc1 [Example 6, (3S)-3-(4-Chlorophenyl)-6-methyl-1,3-dihydrofuro[3,4-c]pyridin-7-yl trans-4-({[(1Z)-2-tert-butyl-2-methyl-1-oxidohydrazono]amino}oxy)cyclohexanecarboxylate] | −16 | −16 | −7 | −6 | −3 | −1
2 | Cc1ncc2c(c1OC(=O)O[C@@H](C)CCCCO/N=[N+](\[O-])N(C)C(C)(C)C)CO[C@H]2c1ccc(Cl)cc1 [Example 25, (2S)-6-({[(1Z)-2-tert-butyl-2-methyl-1-oxido-1λ^5-diazan-1-ylidene]amino}oxy)hexan-2-yl (3 S) 3-(4-chlorophenyl)-6-methyl-1,3-dihydrofuro[3,4-c]pyridin-7-yl carbonate] | −12 | −14 | −7 | −7 | −4 | 0
3 | Cc1ncc2c(c1OC(=O)CCC(C)CO/N=[N+](\[O-])N(C)C(C)(C)C)CO[C@H]2c1ccc(Cl)cc1 (stereo partly drawn) [Example 13, (3S)-3-(4-Chlorophenyl)-6-methyl-1,3-dihydrofuro[3,4-c]pyridin-7-yl 5-({[(1Z)-2-tert-butyl-2-methyl-1-oxido-1λ^5-diazan-1-ylidene]amino}oxy)-4-methylpentanoate] | −22 | −30 | −11 | −15 | −6 | −4
4 | Cc1ncc2c(c1OC(=O)CCCCO/N=[N+](\[O-])N(C)C(C)(C)C)CO[C@H]2c1ccc(Cl)cc1 [Example 8, (3S)-3-(4-Chlorophenyl)-6-methyl-1,3-dihydrofuro[3,4-c]pyridin-7-yl 5-({[(1Z)-2-tert-butyl-2-methyl-1-oxido-1λ^5-diazan-1-ylidene]amino}oxy)pentanoate] | −12 | −15 | −8 | −12 | −4 | −2
5 | Cc1ncc2c(c1OC(=O)CCCC(C)O/N=[N+](\[O-])N(C)C(C)(C)C)CO[C@H]2c1ccc(Cl)cc1 (stereo partly drawn) [Example 14, (3S)-3-(4-Chlorophenyl)-6-methyl-1,3-dihydrofuro[3,4-c]pyridin-7-yl 5-({[(1Z)-2-tert-butyl-2-methyl-1-oxido-1λ^5-diazan-1-ylidene]amino}oxy)hexanoate] | −18 | −21 | −9 | −8 | −3 | 3
6 | Cc1ncc2c(c1OC(=O)[C@H]1CC[C@@H](O/N=[N+](\[O-])N(C)C(C)(C)C)CC1)CO[C@H]2c1ccc(Cl)cc1 [Example 5, (3S)-3-(4-Chlorophenyl)-6-methyl-1,3-dihydrofuro[3,4-c]pyridin-7-yl cis-4-({[(1Z)-2-tert-butyl-2-methyl-1-oxidohydrazono]amino}oxy)cyclohexanecarboxylate] | −10 | −11 | −3 | −2 | 1 | 2
